test system: HCV pseudoparticles (genotype 1a HCV E1 and E2 envelope, H77C isolate); test: microbe, parasite or virus in culture; type: cell-based; details: Hepatitis C virus, Huh-7, 48 h, HCV pseudoparticle infection of Huh7 cells, luciferase 2 days after infection; average of duplicates

| Compound | EC50 [nM] |
| --- | --- |
| C[C@H](NC(=O)C(=O)NCC[C@H](NC(=O)c1ccc(Nc2nc(NC3(c4ccc(Cl)cc4)CC3)nc(OCC(F)(F)F)n2)cc1)C(=O)O)C1CC1 [Compound 1435] | 0.11 |
| O=C(NCC[C@H](NC(=O)c1ccc(Nc2nc(NC3(c4ccc(Cl)cc4)CC3)nc(OCC(F)(F)F)n2)cc1)C(=O)O)C(=O)NCC1(C(=O)O)CC1 [Compound 1447] | 97.7 |
| COC(=O)[C@H](CNC(=O)C(=O)NCC1CCCN(C(=O)OC(C)(C)C)C1)NC(=O)c1ccc(Nc2nc(NC3(c4ccc(Cl)cc4)CC3)nc(OCC(F)(F)F)n2)cc1 (stereo partly shown) [Compound 1452] | 1.83 |
| COC(=O)[C@H](CNC(=O)C(=O)NCC1CCOCC1)NC(=O)c1ccc(Nc2nc(NC3(c4ccc(Cl)cc4)CC3)nc(OCC(F)(F)F)n2)cc1 [Compound 1456] | 3.45 |
| COC(=O)[C@H](CNC(=O)C(=O)NCC1CCCOC1)NC(=O)c1ccc(Nc2nc(NC3(c4ccc(Cl)cc4)CC3)nc(OCC(F)(F)F)n2)cc1 (stereo partly shown) [Compound 1458] | 3.2 |
| O=C(Nc1ccc(C(=O)O)cc1)C(=O)NC1CCCC1CNC(=O)c1ccc(Nc2nc(NC3(c4ccc(Cl)cc4)CC3)nc(OCC(F)(F)F)n2)cc1 (stereo not shown) [Compound 1464] | 0.48 |
| CC(C)(C)CC(=O)N[C@H]1CC[C@@H](CNC(=O)C(=O)NC[C@H](NC(=O)c2ccc(Nc3nc(NC4(c5ccc(Cl)cc5)CC4)nc(OCC(F)(F)F)n3)cc2)C(=O)O)CC1 [Compound 1469] | 2.3 |

same assay, conditions: Hepatitis C virus, Huh-7, 48 h, read-out: Activity (EC50 class), HCV pseudoparticle infection of Huh7 cells, luciferase 2 days after infection; EC50 expressed as class A/B

| Compound | EC50 [nM] |
| --- | --- |
| O=C(NCC[C@H](NC(=O)c1ccc(Nc2nc(NC3(c4ccc(Cl)cc4)CC3)nc(OCC(F)(F)F)n2)cc1)C(=O)O)C(=O)NCC1(Cn2ccnc2)CC1 [Compound 1429] | 0.01 to 10 |
| CCc1ccnn1CC1(CNC(=O)C(=O)NCC[C@H](NC(=O)c2ccc(Nc3nc(NC4(c5ccc(Cl)cc5)CC4)nc(OCC(F)(F)F)n3)cc2)C(=O)O)CC1 [Compound 1430] | 0.01 to 10 |
| O=C(NCC[C@H](NC(=O)c1ccc(Nc2nc(NC3(c4ccc(Cl)cc4)CC3)nc(OCC(F)(F)F)n2)cc1)C(=O)O)C(=O)NCC1(COc2ccccc2)CC1 [Compound 1431] | 0.01 to 10 |
| CN1CCN(CC2(CNC(=O)C(=O)NCC[C@H](NC(=O)c3ccc(Nc4nc(NC5(c6ccc(Cl)cc6)CC5)nc(OCC(F)(F)F)n4)cc3)C(=O)O)CC2)CC1 [Compound 1432] | 0.01 to 10 |
| O=C(NCC[C@H](NC(=O)c1ccc(Nc2nc(NC3(c4ccc(Cl)cc4)CC3)nc(OCC(F)(F)F)n2)cc1)C(=O)O)C(=O)Nc1ccccc1 [Compound 1433] | 0.01 to 10 |
| Cc1cccc(C2CC2CNC(=O)C(=O)NCC[C@H](NC(=O)c2ccc(Nc3nc(NC4(c5ccc(Cl)cc5)CC4)nc(OCC(F)(F)F)n3)cc2)C(=O)O)c1 (stereo partly shown) [Compound 1434] | 0.01 to 10 |
| C[C@H](NC(=O)C(=O)NCC[C@H](NC(=O)c1ccc(Nc2nc(NC3(c4ccc(Cl)cc4)CC3)nc(OCC(F)(F)F)n2)cc1)C(=O)O)C1CC1 [Compound 1435] | 0.01 to 10 |
| COc1ccc(C(NC(=O)C(=O)NCC[C@H](NC(=O)c2ccc(Nc3nc(NC4(c5ccc(Cl)cc5)CC4)nc(OCC(F)(F)F)n3)cc2)C(=O)O)C2CC2)cc1 (stereo partly shown) [Compound 1437] | 0.01 to 10 |
| O=C(NCC[C@H](NC(=O)c1ccc(Nc2nc(NC3(c4ccc(Cl)cc4)CC3)nc(OCC(F)(F)F)n2)cc1)C(=O)O)C(=O)NCC1CC1c1ccc(F)cc1 (stereo partly shown) [Compound 1438] | 0.01 to 10 |
| O=C(NCC[C@H](NC(=O)c1ccc(Nc2nc(NC3(c4ccc(Cl)cc4)CC3)nc(OCC(F)(F)F)n2)cc1)C(=O)O)C(=O)NC(CCO)C1CC1 (stereo partly shown) [Compound 1439] | 0.01 to 10 |
| CC(NC(=O)C(=O)NCC[C@H](NC(=O)c1ccc(Nc2nc(NC3(c4ccc(Cl)cc4)CC3)nc(OCC(F)(F)F)n2)cc1)C(=O)O)C1CC1 (stereo partly shown) [Compound 1440] | 0.01 to 10 |
| COCC(NC(=O)C(=O)NCC[C@H](NC(=O)c1ccc(Nc2nc(NC3(c4ccc(Cl)cc4)CC3)nc(OCC(F)(F)F)n2)cc1)C(=O)O)C1CC1 (stereo partly shown) [Compound 1441] | 0.01 to 10 |
| O=C(NCC[C@H](NC(=O)c1ccc(Nc2nc(NC3(c4ccc(Cl)cc4)CC3)nc(OCC(F)(F)F)n2)cc1)C(=O)O)C(=O)NCC1CC1c1cc(F)ccc1F (stereo partly shown) [Compound 1442] | 0.01 to 10 |
| O=C(NCC[C@H](NC(=O)c1ccc(Nc2nc(NC3(c4ccc(Cl)cc4)CC3)nc(OCC(F)(F)F)n2)cc1)C(=O)O)C(=O)NCC1(CN2CCCN2)CC1 [Compound 1443] | 0.01 to 10 |
| Cc1ccc(C2CC2CNC(=O)C(=O)NCC[C@H](NC(=O)c2ccc(Nc3nc(NC4(c5ccc(Cl)cc5)CC4)nc(OCC(F)(F)F)n3)cc2)C(=O)O)cc1 (stereo partly shown) [Compound 1444] | 0.01 to 10 |
| O=C(NCC[C@H](NC(=O)c1ccc(Nc2nc(NC3(c4ccc(Cl)cc4)CC3)nc(OCC(F)(F)F)n2)cc1)C(=O)O)C(=O)NCC1CC1(Cl)Cl (stereo partly shown) [Compound 1445] | 0.01 to 10 |
| O=C(NCC[C@H](NC(=O)c1ccc(Nc2nc(NC3(c4ccc(Cl)cc4)CC3)nc(OCC(F)(F)F)n2)cc1)C(=O)O)C(=O)NCC1CC1c1cccc2c1OCO2 (stereo partly shown) [Compound 1446] | 0.01 to 10 |
| O=C(NCC[C@H](NC(=O)c1ccc(Nc2nc(NC3(c4ccc(Cl)cc4)CC3)nc(OCC(F)(F)F)n2)cc1)C(=O)O)C(=O)NCC1(C(=O)O)CC1 [Compound 1447] | 10 to 1000 |
| O=C(NCC[C@H](NC(=O)c1ccc(Nc2nc(NC3(c4ccc(Cl)cc4)CC3)nc(OCC(F)(F)F)n2)cc1)C(=O)O)C(=O)NCC1CC1c1cccc(F)c1 (stereo partly shown) [Compound 1448] | 0.01 to 10 |
| CC1(C)C(CNC(=O)C(=O)NCC[C@@H](NC(=O)c2ccc(Nc3nc(NC4(c5ccc(Cl)cc5)CC4)nc(OCC(F)(F)F)n3)cc2)C(=O)O)C1(C)C [Compound 1449] | 0.01 to 10 |
| CC(C)(C)CNC(=O)C(=O)NC[C@H](NC(=O)c1ccc(Nc2nc(NC3(c4ccc(Cl)cc4)CC3)nc(OCC(F)(F)F)n2)cc1)C(=O)O [Compound 1450] | 0.01 to 10 |
| COC(=O)[C@H](CNC(=O)C(=O)NCC1CCCCCC1)NC(=O)c1ccc(Nc2nc(NC3(c4ccc(Cl)cc4)CC3)nc(OCC(F)(F)F)n2)cc1 [Compound 1451] | 0.01 to 10 |
| COC(=O)[C@H](CNC(=O)C(=O)NCC1CCCN(C(=O)OC(C)(C)C)C1)NC(=O)c1ccc(Nc2nc(NC3(c4ccc(Cl)cc4)CC3)nc(OCC(F)(F)F)n2)cc1 (stereo partly shown) [Compound 1452] | 0.01 to 10 |

| Compound | EC50 [nM] |
| --- | --- |
| COC(=O)[C@H](CNC(=O)C(=O)NCC1CC[C@H]2C[C@@H]1C2(C)C)NC(=O)c1ccc(Nc2nc(NC3(c4ccc(Cl)cc4)CC3)nc(OCC(F)(F)F)n2)cc1 (stereo partly shown) [Compound 1453] | 0.01 to 10 |
| CCC(CC)CNC(=O)C(=O)NC[C@H](NC(=O)c1ccc(Nc2nc(NC3(c4ccc(Cl)cc4)CC3)nc(OCC(F)(F)F)n2)cc1)C(=O)OC [Compound 1454] | 0.01 to 10 |
| COC(=O)[C@H](CNC(=O)C(=O)N[C@H](C)C1CCCCC1)NC(=O)c1ccc(Nc2nc(NC3(c4ccc(Cl)cc4)CC3)nc(OCC(F)(F)F)n2)cc1 [Compound 1455] | 0.01 to 10 |
| COC(=O)[C@H](CNC(=O)C(=O)NCC1CCOCC1)NC(=O)c1ccc(Nc2nc(NC3(c4ccc(Cl)cc4)CC3)nc(OCC(F)(F)F)n2)cc1 [Compound 1456] | 0.01 to 10 |
| CC(C)(CNC(=O)C(=O)Nc1ccc(C(=O)O)cc1)CNC(=O)c1ccc(Nc2nc(NC3(c4ccc(Cl)cc4)CC3)nc(OCC(F)(F)F)n2)cc1 [Compound 1457] | 0.01 to 10 |
| COC(=O)[C@H](CNC(=O)C(=O)NCC1CCCOC1)NC(=O)c1ccc(Nc2nc(NC3(c4ccc(Cl)cc4)CC3)nc(OCC(F)(F)F)n2)cc1 (stereo partly shown) [Compound 1458] | 0.01 to 10 |
| CCC1(CC)CC1CNC(=O)C(=O)NC[C@H](NC(=O)c1ccc(Nc2nc(NC3(c4ccc(Cl)cc4)CC3)nc(OCC(F)(F)F)n2)cc1)C(=O)OC (stereo partly shown) [Compound 1459] | 0.01 to 10 |
| COC(=O)[C@H](CNC(=O)C(=O)NCC1CC1)NC(=O)c1ccc(Nc2nc(NC3(c4ccc(Cl)cc4)CC3)nc(OCC(F)(F)F)n2)cc1 [Compound 1461] | 0.01 to 10 |
| O=C(NCC1CC1)C(=O)NC1CCCC1CNC(=O)c1ccc(Nc2nc(NC3(c4ccc(Cl)cc4)CC3)nc(OCC(F)(F)F)n2)cc1 (stereo not shown) [Compound 1462] | 0.01 to 10 |
| O=C(Nc1ccc(C(=O)O)cc1)C(=O)NC1CCCC1CNC(=O)c1ccc(Nc2nc(NC3(c4ccc(Cl)cc4)CC3)nc(OCC(F)(F)F)n2)cc1 (stereo not shown) [Compound 1464] | 0.01 to 10 |
| O=C(Nc1ccc(F)cc1)C(=O)NC1CCCC1CNC(=O)c1ccc(Nc2nc(NC3(c4ccc(Cl)cc4)CC3)nc(OCC(F)(F)F)n2)cc1 (stereo not shown) [Compound 1465, N^1-(2-((4-((4-((1-(4-chlorophenyl)cyclopropyl)amino)-6-(2,2,2-trifluoroethoxy)-1,3,5-triazin-2-yl)amino)benzamido)methyl)cyclopentyl)-N^2-(4-fluorophenyl)oxalamide] | 0.01 to 10 |
| O=C(NCC1CC1)C(=O)NC[C@H](NC(=O)c1ccc(Nc2nc(NC3(c4ccc(Cl)cc4)CC3)nc(OCC(F)(F)F)n2)cc1)C(=O)O [Compound 1467] | 0.01 to 10 |
| CC(C)(C)OC(=O)N1CCCC(CNC(=O)C(=O)NC[C@H](NC(=O)c2ccc(Nc3nc(NC4(c5ccc(Cl)cc5)CC4)nc(OCC(F)(F)F)n3)cc2)C(=O)O)C1 (stereo partly shown) [Compound 1468] | 0.01 to 10 |
| CC(C)(C)CC(=O)N[C@H]1CC[C@@H](CNC(=O)C(=O)NC[C@H](NC(=O)c2ccc(Nc3nc(NC4(c5ccc(Cl)cc5)CC4)nc(OCC(F)(F)F)n3)cc2)C(=O)O)CC1 [Compound 1469] | 0.01 to 10 |
| O=C(NCC1CCCOC1)C(=O)NC[C@H](NC(=O)c1ccc(Nc2nc(NC3(c4ccc(Cl)cc4)CC3)nc(OCC(F)(F)F)n2)cc1)C(=O)O (stereo partly shown) [Compound 1470] | 0.01 to 10 |
| CCC1(CC)CC1CNC(=O)C(=O)NC[C@H](NC(=O)c1ccc(Nc2nc(NC3(c4ccc(Cl)cc4)CC3)nc(OCC(F)(F)F)n2)cc1)C(=O)O (stereo partly shown) [Compound 1471] | 0.01 to 10 |
| O=C(NC[C@H](NC(=O)c1ccc(Nc2nc(NC3(c4ccc(Cl)cc4)CC3)nc(OCC(F)(F)F)n2)cc1)C(=O)O)C(=O)NC1(C2CCCCC2)CC1 [Compound 1472] | 0.01 to 10 |
| CC1(C)[C@H]2CCC(CNC(=O)C(=O)NC[C@H](NC(=O)c3ccc(Nc4nc(NC5(c6ccc(Cl)cc6)CC5)nc(OCC(F)(F)F)n4)cc3)C(=O)O)[C@@H]1C2 (stereo partly shown) [Compound 1473] | 0.01 to 10 |
| O=C(NC[C@H]1CCC[C@H]1NC(=O)c1ccc(Nc2nc(NC3(c4ccc(Cl)cc4)CC3)nc(OCC(F)(F)F)n2)cc1)C(=O)Nc1ccc(F)cc1 [Compound 1474] | 0.01 to 10 |
| C[C@@H](NC(=O)C(=O)NC[C@H](NC(=O)c1ccc(Nc2nc(NC3(c4ccc(Cl)cc4)CC3)nc(OCC(F)(F)F)n2)cc1)C(=O)O)C1CCCCC1 [Compound 1476] | 0.01 to 10 |
| O=C(NCC1CCOCC1)C(=O)NC[C@H](NC(=O)c1ccc(Nc2nc(NC3(c4ccc(Cl)cc4)CC3)nc(OCC(F)(F)F)n2)cc1)C(=O)O [Compound 1477] | 0.01 to 10 |
| CC(C)(CNC(=O)C(=O)Nc1ccc(F)cc1)CNC(=O)c1ccc(Nc2nc(NC3(c4ccc(Cl)cc4)CC3)nc(OCC(F)(F)F)n2)cc1 [Compound 1479] | 0.01 to 10 |
